pIC50: −log10 of the molar value.
Assays:
[1] = biological target: T1, CRM1 (Homo sapiens, UniProt O14980); assay: RevGFP assay: inhibition of CRM1 mediated nuclear export; type: cell-based; conditions: U2OS-RevGFP cells, ~1 hr with compound; read-out: Rev Export [IC50]
T1 construct: endogenous in cells; host or cells: U2OS-RevGFP cells
Procedure: The inhibition of CRM1 mediated nuclear export by compounds of the invention was determined. The inhibitory activity of compounds for the CRM1 protein was determined in the RevGFP assay.
Experimental protocol: Rev is a protein from human immunodeficiency virus type 1 (HIV-1) and contains a nuclear export signal (NES) in its C-terminal domain and a nuclear localization signal (NLS) in its N-terminal domain. Nuclear export of Rev protein is dependent on the classical NES/CRM1 pathway (Neville et al, 1997, Kau et al, 2003). Nuclear accumulation of Rev is observed in cells treated with specific inhibitors of CRM1, such as LMB (Kau et al, 2003). In this assay, U2OS-RevGFP cells are seeded onto clear-bottom, black, 384-well plates the day before the experiment. Compounds are serially diluted 1:2 starting from 40 μM in a separate 384-well plate in DMEM, and then transferred onto cells. Cells are incubated with compound for ˜1 hr before fixation with 3.7% formaldehyde and nuclei staining with Hoechst 33258. The amount of GFP in cell nuclei was measured and compound IC50s were determined (Kau et al, 2003).

[2] = MTT Cell Proliferation Assay (CellTiter 96 AQueous One Solution, MTS); type: cell-based; conditions: human; 72 h treatment; cell line not given; read-out: Cytotoxicity [IC50]
Excerpt: The CellTiter 96® AQueous One Solution cell proliferation assay (Promega) was used on MM1.S, Jurkat and HCT-116 cells to study the cytotoxic and cytostatic properties of the compounds. The assay is based on the cleavage of the tetrazolium salt, MTS, in the presence of an electron-coupling reagent PES (phenazine ethosulfate). The MTS tetrazolium compound is bioreduced by cells into a colored formazan product that is soluble in tissue culture medium. This conversion is presumably accomplished by NADPH or NADH produced by dehydrogenase enzymes in metabolically active cells. Assays are performed by adding a small amount of the CellTiter 96® AQueous One solution reagent directly to culture wells, incubating for 1-4 hours and then recording the absorbance at 490 nm with a 96-well plate reader. […] The cells were seeded at 5×10^3 to 1.5×10^4 cells (depending on cell type) in each well of 96-well plate in 100 μL of fresh culture medium and adherent cells were allowed to attach for overnight. The stock solutions of the compounds were diluted in cell culture medium to obtain eight concentrations of each drug, ranging from 1 nM to 30 μM and DMSO at less than 1% v/v was used as a negative control. After 72 h of treatment 20 μl of CellTiter 96® AQueous reagent was added into each well of the 96-well assay plates and the plate was incubate at 37° C. for 1-4 hours in a humidified, 5% CO2 atmosphere. Then the absorbance of each well was recorded at 490 nm by using a 96-well plate reader. In most cases the assay was performed in triplicates and the results were presented as half maximal inhibitory concentration (IC50) described below. Optical density versus compound concentration was plotted and analyzed using non linear regression equations (Excel Fit) and the IC50 for each compound was calculated.

[3] = Pharmacokinetics (plasma AUC) in mice; type: in vivo; conditions: mouse
Procedure: Blood was collected from mice (N=3) to contribute to the total of 10 time points (pre-dose, 5 min, 15 min, 30 min, 1 hour, 2 hours, 4 hours, 8 hours, 12 hours and 24 hours post dose). Mice were bled on a rotating basis, each mouse contributing 3 time points to the blood collection. At the designated time points, animals were anaesthetized under isoflurane, and approximately 110 μL of blood per time point was collected via retro-orbital puncture into pre-cooled K2EDTA (anti-coagulant) tubes. Blood samples were put on wet ice and centrifuged (2000 g, 5 min at 4° C.) to obtain plasma within 30 minutes of sample collection. All samples were stored frozen at approximately −80° C. until analysis. Prior to analysis, samples were mixed with internal standard (dexamethasone) in acetonitrile, vortexed, centrifuged, and supernatant was injected for analysis. Concentration of compounds in plasma was determined using LC-MS-MS instrumentation (API 4000, Triple Quadruple with electrospray ionization; Acuity Ultra Performance Liquid Chromatography column C18, with MeOH and formic acid as organic solvents). PK parameters including but not limited to Tmax, Cmax, t1/2, AUClast, AUCinf were calculated using WinNonlin Professional 6.2 software package, non-compartmental pharmacokinetic model NCA200.

[4] = Brain to plasma ratio (B:P) in mice; type: in vivo; conditions: for Kp at 2 h: mouse, brain and plasma, 10 mg/kg po, 2 hours post-dose
Procedure: Brain tissue following collection was rinsed with cold saline, dried on filter paper, weighed and snap-frozen by placing on dry ice. All samples were stored frozen at approximately −80° C. until analysis. […] Plasma samples were treated with the identical method (except homogenization step) and concentration of compound in either matrix was calculated based on the generated standard curves.

T1 sequence (O14980 whole entry): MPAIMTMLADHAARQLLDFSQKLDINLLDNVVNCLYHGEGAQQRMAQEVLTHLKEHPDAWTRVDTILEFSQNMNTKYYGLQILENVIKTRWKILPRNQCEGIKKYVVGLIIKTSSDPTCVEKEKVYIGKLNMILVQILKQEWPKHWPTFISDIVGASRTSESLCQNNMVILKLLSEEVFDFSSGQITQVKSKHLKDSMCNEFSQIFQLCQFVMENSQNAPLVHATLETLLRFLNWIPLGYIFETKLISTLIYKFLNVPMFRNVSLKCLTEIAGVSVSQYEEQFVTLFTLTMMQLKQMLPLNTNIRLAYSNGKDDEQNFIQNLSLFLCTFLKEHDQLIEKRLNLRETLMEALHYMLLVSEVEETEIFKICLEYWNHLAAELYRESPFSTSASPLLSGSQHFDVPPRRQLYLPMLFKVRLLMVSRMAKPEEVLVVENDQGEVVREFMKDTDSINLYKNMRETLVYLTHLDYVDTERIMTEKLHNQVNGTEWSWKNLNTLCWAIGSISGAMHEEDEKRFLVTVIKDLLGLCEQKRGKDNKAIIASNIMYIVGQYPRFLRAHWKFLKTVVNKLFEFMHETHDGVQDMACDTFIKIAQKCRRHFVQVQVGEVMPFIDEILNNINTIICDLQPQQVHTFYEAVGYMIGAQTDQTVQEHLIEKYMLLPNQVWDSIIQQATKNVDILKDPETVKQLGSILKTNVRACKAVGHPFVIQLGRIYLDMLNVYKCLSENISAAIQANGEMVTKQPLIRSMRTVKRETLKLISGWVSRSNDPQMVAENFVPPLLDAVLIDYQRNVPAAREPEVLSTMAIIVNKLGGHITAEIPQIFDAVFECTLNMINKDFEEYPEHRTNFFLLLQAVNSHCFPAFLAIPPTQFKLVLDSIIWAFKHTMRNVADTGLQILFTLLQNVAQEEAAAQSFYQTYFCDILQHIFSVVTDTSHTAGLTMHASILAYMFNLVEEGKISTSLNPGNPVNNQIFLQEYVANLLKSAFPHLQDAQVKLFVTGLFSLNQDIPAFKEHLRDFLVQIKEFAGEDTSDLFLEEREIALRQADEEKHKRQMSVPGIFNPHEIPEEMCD

Row | SMILES | pIC50 [1] | AUC(0-inf) ([3]; 10 mg/kg po) [ng·h/mL] | Kp at 2 h [4] | AUC(0-inf) ([3]; 5 mg/kg po) [ng·h/mL] | IC50 at 72 h [2] [nM] | AUC(0-inf) ([3]; 5 mg/kg iv) [ng·h/mL] | levels in the brain ([4]; dosed po)
1 | CN(NC(=O)/C=C\n1cnc(-c2cc(C(F)(F)F)cc(C(F)(F)F)c2)n1)C(=O)CN1CCOCC1 [Compound 5, (Z)-3-(3-(3,5-bis(trifluoromethyl)phenyl)-1H-1,2,4-triazol-1-yl)-N′-methyl-N′-(2-morpholinoacetyl)acrylohydrazide] |  |  |  |  | < 1000 |  | 
2 | O=C(/C=C\n1cnc(-c2cc(C(F)(F)F)cc(C(F)(F)F)c2)n1)NNC(=O)C1CCCNC1 (stereo not drawn) [Compound 6, (Z)—N′-(3-(3-(3,5-bis(trifluoromethyl)phenyl)-1H-1,2,4-triazol-1-yl)acryloyl)piperidine-3-carbohydrazide] |  |  |  |  | < 1000 |  | 
3 | CC(C)[C@H](N)C(=O)NNC(=O)/C=C\n1cnc(-c2cc(C(F)(F)F)cc(C(F)(F)F)c2)n1 [Compound 7, (S,Z)-2-amino-N′-(3-(3-(3,5-bis(trifluoromethyl)phenyl)-1H-1,2,4-triazol-1-yl)acryloyl)-3-methylbutanehydrazide 2,2,2-trifluoroacetate] |  |  |  |  | < 1000 |  | 
4 | O=C(/C=C\n1cnc(-c2cc(C(F)(F)F)cc(C(F)(F)F)c2)n1)NNC(=O)c1cnccn1 [Compound 8, (Z)—N′-(3-(3-(3,5-bis(trifluoromethyl)phenyl)-1H-1,2,4-triazol-1-yl)acryloyl)pyrazine-2-carbohydrazide] |  | 9150 | 0.41 |  | < 1000 |  | 
5 | CN1CCC(C(=O)NNC(=O)/C=C\n2cnc(-c3cc(C(F)(F)F)cc(C(F)(F)F)c3)n2)CC1 [Compound 9, (Z)—N′-(3-(3-(3,5-bis(trifluoromethyl)phenyl)-1H-1,2,4-triazol-1-yl)acryloyl)-1-methylpiperidine-4-carbohydrazide] |  |  |  | 671 | < 1000 |  | 
6 | CC(C)[C@@H](N)C(=O)NNC(=O)/C=C\n1cnc(-c2cc(C(F)(F)F)cc(C(F)(F)F)c2)n1 [Compound 10, (R,Z)-2-amino-N′-(3-(3-(3,5-bis(trifluoromethyl)phenyl)-1H-1,2,4-triazol-1-yl)acryloyl)-3-methylbutanehydrazide 2,2,2-trifluoroacetate] |  |  |  |  | < 1000 |  | 
7 | O=C(/C=C\n1cnc(-c2cc(C(F)(F)F)cc(C(F)(F)F)c2)n1)NNC(=O)Cc1cnccn1 [Compound 11, (Z)-3-(3-(3,5-bis(trifluoromethyl)phenyl)-1H-1,2,4-triazol-1-yl)-N′-(2-(pyrazin-2-yl)acetyl)acrylohydrazide] |  | 8340 | 0.095 |  | < 1000 |  | 
8 | O=C(/C=C\n1cnc(-c2cc(C(F)(F)F)cc(C(F)(F)F)c2)n1)NNC(=O)C(=O)N1CCOCC1 [Compound 12, (Z)-3-(3-(3,5-bis(trifluoromethyl)phenyl)-1H-1,2,4-triazol-1-yl)-N′-(2-morpholino-2-oxoacetyl)acrylohydrazide] | > 6.00 | 19600 | 0.06 |  | < 1000 |  | 
9 | CC1(C)COCCN1CC(=O)NNC(=O)/C=C\n1cnc(-c2cc(C(F)(F)F)cc(C(F)(F)F)c2)n1 [Compound 15, (Z)-3-(3-(3,5-bis(trifluoromethyl)phenyl)-1H-1,2,4-triazol-1-yl)-N′-(2-(3,3-dimethylmorpholino)acetyl)acrylohydrazide] |  | 588 | 0 |  | < 1000 |  | 
10 | COc1cc(-c2ncn(/C=C\C(=O)OC(C)C)n2)cc(C(F)(F)F)c1 [Compound X-1, reference compound] | > 6.00 |  |  |  | < 1000 | 209 | below the quantitation limit

Now from value to compound, other results behind:

Row | pIC50 [1] | AUC(0-inf) ([3]; 10 mg/kg po) [ng·h/mL] | Kp at 2 h [4] | AUC(0-inf) ([3]; 5 mg/kg po) [ng·h/mL] | SMILES | IC50 at 72 h [2] [nM] | AUC(0-inf) ([3]; 5 mg/kg iv) [ng·h/mL] | levels in the brain ([4]; dosed po)
11 | > 6.00 | 15200 | 0.03 |  | Cc1[nH]ncc1C(=O)NNC(=O)/C=C\n1cnc(-c2cc(C(F)(F)F)cc(C(F)(F)F)c2)n1 [Compound 3, (Z)—N′-(3-(3-(3,5-bis(trifluoromethyl)phenyl)-1H-1,2,4-triazol-1-yl)acryloyl)-5-methyl-1H-pyrazole-4-carbohydrazide] | < 1000 |  | 
12 |  | 20900 | 0.028 |  | O=C(/C=C\n1cnc(-c2cc(C(F)(F)F)cc(C(F)(F)F)c2)n1)NNC(=S)NC1CC1 [Compound 4, (Z)-2-(3-(3-(3,5-bis(trifluoromethyl)phenyl)-1H-1,2,4-triazol-1-yl)acryloyl)-N-cyclopropylhydrazinecarbothioamide] | < 1000 |  | 
13 |  | 1100 | 1.5 |  | CC1COCC(C)N1CC(=O)NNC(=O)/C=C\n1cnc(-c2cc(C(F)(F)F)cc(C(F)(F)F)c2)n1 (stereo not drawn) [Compound 13, (Z)-3-(3-(3,5-bis(trifluoromethyl)phenyl)-1H-1,2,4-triazol-1-yl)-N′-(2-(3,5-dimethylmorpholino)acetyl)acrylohydrazide] | < 1000 |  | 
14 |  | 1420 | 0 |  | O=C(/C=C\n1cnc(-c2cc(C(F)(F)F)cc(C(F)(F)F)c2)n1)NNC(=O)CN1CCOCC1=O [Compound 14, (Z)-3-(3-(3,5-bis(trifluoromethyl)phenyl)-1H-1,2,4-triazol-1-yl)-N′-(2-(3-oxomorpholino)acetyl)acrylohydrazide] | < 1000 |  | 

Reference: US9096543B2, “Nuclear transport modulators and uses thereof” (Karyopharm Therapeutics Inc., priority 2012, dated 2015)
